# Assay results: patent US10711027B2, “DNA polymerase beta inhibitors” (The Johns Hopkins University, priority 2016, dated 2020)
# Several values for one entry are separate records, joined by “and”; a condition that tells them apart may be missing. Equal entries are not always repeated. Entries after “also recorded” stand apart in the source; their conditions may differ.
# How the values were obtained:
# [1] = system: HeLa cells; assay: Comet assay to visualize DNA damage; type: cell-based, human; details: BLM 2 μM 2 h
# Procedure: Bleomycin sulphate treatment of HeLa cells was carried out exactly in the same way as described above. The only difference was that approximately […] HeLa cells were plated in each well of the 6 wells culture plate. After the required incubation steps, the medium was aspirated from the cell culture, and washed with PBS (3×) by adding 5 mL of PBS to each well, scratching with a cell scraper (3 cm blade) and transferring the cells to a 15 mL Falcon tube. Cells were pelleted by centrifuging at 3000 g for 10 min at room temperature. Cells were resuspended in PBS and pelleted again. For the comet assay, cells were suspended in 2 mL PBS/well and counted (generally approximately 1×10^7/mL). An aliquot (10 μL) of the cell suspension was diluted to 1×10^5 cells/mL using PBS and used in an Oxiselect™ Comet Assay Kit (Cell Biolabs, INC. Catalog number STA-350) according to the product manual (www.cellbiolabs.com/sites/default/files/STA-350-comet-assay-kit.pdf). In brief, cell samples were combined with Comet Agarose at 1:10 ratio (v/v), titrurated with a pipette to mix, and immediately pipette 75 μL/well onto the OxiSelect™ Comet Slide. […] View slides by a fluorescence microscopy using a FITC filter. […] The relative tail lengths were determined with Open Comet software.
# [2] = system: HeLa cells; assay: Clonogenic assay for cell survival; type: cell-based, human; details: for cell death, individual treatment: pro-13 5 μM, pro-1 5 μM, MMS 0.1 mM; for enhancement (potentiation) of MMS cytotoxicity: compared to individual agents
# Procedure: HeLa (human cervical carcinoma) cells were maintained in Dulbecco's Modified Eagle's Medium (DMEM), supplemented with 10% fetal bovine serum (FBS), 100 U mL^−1 of penicillin and 100 μg mL^−1 of streptomycin at 37° C. in a humidified incubator at 5% CO2. […] At 90% confluency, there are around 1.5×10^7 cells in one dish of 150 mm×25 mm. Cell viability assay. […] After the indicated time, the medium was removed from the cell culture by aspiration, and washed once with PBS. A stock solution of bleomycin sulphate (1 mM) in DMSO was diluted in the culture medium to 2 μM and then added to the plates keeping the quantity of DMSO constant at 1% for all tests. Cells were then incubated for 2 h at 37° C. in a CO2 incubator. The medium was then subsequently replaced with fresh DMEM-FBS and incubation was continued for an additional 1 or 2 h at 37° C. in a CO2 incubator. […] A portion (10 μL) of the cell suspension was thoroughly mixed with 10 μL of 0.4% solution of trypan blue in PBS (pH 7.2 to 7.3), and placed on a counting slide (BIO-RAD) to count the % of live cells using a TC20 automated cell counter (BIO-RAD). A control experiment without treating with bleomycin sulphate was carried out in parallel. All the experiments were carried out at least 3 times, and each experiment consisted of 3 replicates.
# After overnight incubation at 37° C. in a humidified atmosphere of 5% CO2, cells were subjected to the appropriate DNA damaging conditions (or controls). For alkylation experiments, cells were incubated with MMS (0, 0.1, or 0.2 mM), with or without pro-13 (5 μM) for 1 or 2 h. For experiments involving recovery after MMS treatment, the medium containing MMS and/or pro-13 was replaced after 2 h with fresh medium with or without pro-13 (5 μM) and incubation continued for 2-8 h. For BLM experiments, cells were incubated with BLM (2 μM), with or without pro-13 (5 μM) for 2 h, at which time the medium was replaced with fresh medium containing only pro-13 (5 μM) and incubation was continued for 2 h. The growth medium was then removed from each well and the cells were washed with PBS (2×1 mL). […] The single cell suspensions were collected in 1.6 mL tubes and counted using a Bio-Rad TC20 Automated Cell Counter. Stock solutions of single cell suspensions were made in two groups for each concentration with 500 cells/mL (for untreated control) and 1500 cells/mL (for treated cells), respectively. These cells were seeded in 6 well plates (well size; 35 mm×18 mm) in 2 mL of 10% DMEM-FBS. The plates were incubated in humidified atmosphere with 5% CO2 for 7 days. After 7 days, the growth medium was discarded and the attached cells were treated with 0.2% w/v crystal violet solution. The excess dye was washed with water and the colonies were counted under a stereomicroscope. Plating efficiencies (PE) and survival fractions (SF) were calculated as follows: PE=number of colonies[…]number of cells seeded; SF=PE[…]PE (control).
# [3] = system: HeLa cells; assay: AP/dRP site accumulation in genomic DNA (aldehyde reactive probe); type: cell-based, human
# Source text: Evidence that pro-13 leads to BER inhibition in HeLa cells was obtained by determining its effect on the level of aldehyde reactive probe (ARP) sites (Table 1). ARP is routinely used to quantify AP sites in DNA, and has been employed to validate Ape1 inhibition, but dRP detection via this method was not known. Rai et al., 2012; Dorjsuren et al., 2012; Ide et al., 1993; Asaeda et al., 1998. […] Inhibition of Pol β (and/or Pol λ) should lead to a build-up of dRP sites instead of AP, which would be indistinguishable from AP using ARP (Scheme 11). […] The level of AP/dRP sites in the genomic DNA isolated from HeLa cells treated with MMS, pro-13 or a combination, was subsequently measured. Following treatment with the DNA damaging agent (1 h), the medium was replaced with fresh medium with or without pro-13 (5 μM), and the cells were incubated an additional 23 h. The level of ARP reactive sites increased approximately 3-fold when cells were treated with a combination of MMS and pro-13 compared to just the alkylating agent (Table 1), consistent with the inhibition of BER in cells treated with the proinhibitor.
# HeLa cells (approximately 1×10^7) were plated in 150 mm×25 mm dishes and treated with DMSO (1% final concentration), MMS (0.3 or 0.4 mM), or pro-13 (5 μM) alone or with a combination of MMS (0.3 or 0.4 mM), and pro-13 (5 μM) for 1 h at 37° C. The cellular medium was then replaced with fresh DMEM-FBS and incubation was continued for 23 h at 37° C. in a CO2 incubator in the absence or presence of pro-13 (5 μM). Cells were then harvested with 0.25% Trypsin-EDTA, and the genomic DNA of each sample was isolated according to Dojindo Genomic DNA isolation kit (www.dojindo.com/TechnicalManual/Manual_GKO3.pdf). The concentration of genomic DNA was measured at 260 nm and adjusted to 100 ng/μL. An aliquot of purified DNA (1 μg) was labeled with 10 μL of aldehyde reactive probe (ARP) reagent (N′-aminooxymethylcarbonylhydrazino-D-biotin), and AP/dRP sites were determined using the DNA damage quantification kit from Dojindo Molecular Technologies (DK02-12) by measuring the absorbance at 650 nm using an ELISA microplate reader (BioRad).
# [4] = molecular target: Ape1 (Homo sapiens, UniProt P27695); assay: Ape1 activity on a duplex containing AP; type: biochemical
# Ape1, sequence (P27695 whole entry): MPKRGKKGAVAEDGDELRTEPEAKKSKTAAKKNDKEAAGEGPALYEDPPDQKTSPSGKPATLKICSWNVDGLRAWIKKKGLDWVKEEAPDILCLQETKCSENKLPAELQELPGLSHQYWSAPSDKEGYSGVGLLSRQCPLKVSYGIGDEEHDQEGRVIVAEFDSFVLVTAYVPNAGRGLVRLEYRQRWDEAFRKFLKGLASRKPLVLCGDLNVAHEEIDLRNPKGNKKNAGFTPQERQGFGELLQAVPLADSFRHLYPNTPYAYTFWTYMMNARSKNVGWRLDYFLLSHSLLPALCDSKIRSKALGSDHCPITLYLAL
molecule,measurement,setting,value
bleomycin [BLM],DNA damage (tail length),[1],confirms DNA damage; also recorded: increase in the tail length
same,cell death,"[2]; BLM 2 μM alone 2 h, 2 h recovery",No observable cell death
"COS(C)(=O)=O [MMS, methyl methanesulfonate, reference compound]","cell death, individual treatment",[2]; 2 h,15%
same,cells survived,"[2]; MMS 0.2 mM without proinhibitor, 2 h",25%
same,AP/dRP sites/10^5 bp,"[3]; HeLa, MMS 0.3 mM, no pro-13",9.2 ± 1.2 sites/10^5 bp
same,AP/dRP sites/10^5 bp,"[3]; HeLa, MMS 0.4 mM, no pro-13",11.0 ± 1.5 sites/10^5 bp
COc1cc(Cl)c(/C=N/OC2C[C@H](n3cc(CNC(=O)c4cc5c(O)cccc5cc4O)c(=O)[nH]c3=O)O[C@@H]2COP(=O)(O)OCC2C[C@H](O)O[C@@H]2O)c(Cl)c1O (stereo partly drawn) [Compound 13],effect on Ape1 activity,[4],does not affect
COc1cc(Cl)c(/C=N/OC2C[C@H](n3cc(CNC(=O)c4cc5c(O)cccc5cc4O)c(=O)[nH]c3=O)O[C@@H]2COP(=O)(O)OCC2C[C@H](OC(C)=O)O[C@@H]2OC(C)=O)c(Cl)c1O (stereo partly drawn) [pro-13],cytotoxicity of proinhibitor alone,[2]; 5 μM,modest cytotoxic effects
same,cell death,"[2]; 5 μM alone, 1 h",2%
same,cells survive,"[2]; 5 μM alone, 2 h",93%
same,synergism with MMS,"[2]; 5 μM, MMS 0.1 or 0.2 mM, 1 or 2 h",synergistic effects
same,cytotoxicity of proinhibitor alone,"[2]; 5 μM, listed as Pro-13",only slightly cytotoxic; also recorded: only weakly cytotoxic
same,"cell death, individual treatment",[2]; 2 h,7%
same,fraction cell survival relative to cells incubated in absence of pro-13,"[2]; MMS 0.1 mM + pro-13 2 h, then 4 h additional incubation with pro-13 5 μM",1/7
same,cells survive,"[2]; MMS 0.1 mM + pro-13 2 h, then 8 h additional incubation with pro-13 5 μM",0.20±0.02% and 0.2%
same,decrease in fraction cell survival,[2]; pro-13 5 μM + BLM 2 μM vs BLM alone,more than 2 fold
same,fraction survival,"[2]; pro-13 5 μM + MMS 0.1 mM, 2 h",0.23 and 0.21±0.04
same,fraction survival lower than expected from agents used separately,"[2]; pro-13 5 μM + MMS 0.1 mM, 2 h",approximately 3.4 fold
same,enhancement (potentiation) of MMS cytotoxicity,[2]; pro-13 5 μM + MMS 0.2 mM,~13 fold
same,enhancement (potentiation) of MMS cytotoxicity,"[2]; pro-13 5 μM + MMS 0.2 mM, listed as Pro-13",approximately 13 fold
same,cells survived,"[2]; pro-13 5 μM + MMS 0.2 mM, longer reaction time (2 h)",< 2%
same,cells survive,[2]; pro-13 5 μM co-incubated with BLM 2 μM,43%
same,abasic site repair,[3]; HeLa cells,inhibited
same,AP/dRP sites/10^5 bp,"[3]; HeLa, MMS 0.3 mM + pro-13 5 μM",28.0 ± 1.4 sites/10^5 bp
same,AP/dRP sites/10^5 bp,"[3]; HeLa, MMS 0.4 mM + pro-13 5 μM",33.0 ± 1.5 sites/10^5 bp
same,increase in ARP reactive (abasic) sites vs MMS alone,"[3]; HeLa, MMS + pro-13 5 μM",approximately 3 fold
same,AP/dRP sites/10^5 bp,"[3]; HeLa, pro-13 5 μM, no MMS",4.6 ± 1.0 sites/10^5 bp
